Reference: patent publication US20240158348A1, “HERBICIDAL CYCLIC AMIDES N-SUBSTITUTED WITH A HALOALKYLSULFONYLANILIDE GROUP” (FMC Corporation, priority 2021, published 2024)

How the values were obtained:
Format in all cases: in vivo
[1] = tested on: oat, wild (wild oat, Avena fatua); experiment: Test C postemergence, wild oat; details: visual injury, 0 to 100 scale (0 no effect, 100 complete control)
Description: (§1) Seeds of plant species selected from blackgrass (Alopecurus myosuroides), corn (Zea mays), foxtail, giant (giant foxtail, Setaria faberi), goosegrass (Eleusine indica), kochia (Bassia scoparia), oat, wild (wild oat, Avena fatua), pigweed, palmer (palmer amaranth, Amaranthus palmeri), ragweed (common ragweed, Ambrosia artemisiifolia), ryegrass, Italian (Italian ryegrass, Lolium multiflorum), soybean (Glycine max) and wheat (Triticum aestivum) were planted into a blend of loam soil and sand and treated preemergence with a directed soil spray using test chemicals formulated in a non-phytotoxic solvent mixture which included a surfactant.
(§2) At the same time, plants selected from these crop and weed species and also galium (catchweed bedstraw, Galium aparine) and horseweed (Erigeron canadensis) were planted in pots containing the same blend of loam soil and sand and treated with postemergence applications of test chemicals formulated in the same manner. Plants ranged in height from 2 to 10 cm and were in the one- to two-leaf stage for the postemergence treatment. Treated plants and untreated controls were maintained in a greenhouse for 10 or 12 days, after which time all treated plants were compared to untreated controls and visually evaluated for injury. Plant response ratings, summarized in Table A, are based on a 0 to 100 scale where 0 is no effect and 100 is complete control. A dash (-) response means no test result.

[2] = tested on: wheat (Triticum aestivum); experiment: Test C preemergence, wheat; details: 0 is no effect, 100 is complete control
Description: as §1, §2

[3] = tested on: pigweed, palmer (palmer amaranth, Amaranthus palmeri); experiment: Test C preemergence, palmer amaranth; details: 0 is no effect, 100 is complete control
Description: as §1, §2

[4] = tested on: barnyardgrass (Echinochloa crusgalli); experiment: Test D flooded paddy test, barnyardgrass; set-up: key: 0 = no effect, 100 = complete control; details: 250 g ai/ha, Flood; applied to paddy water at 2-leaf stage; visual rating after 13 days; scale 0 (no effect) to 100 (complete control)
Experimental: (§3) Plant species in the flooded paddy test selected from barnyardgrass (Echinochloa crusgalli), ducksalad (Heteranthera limosa), rice (Oryza sativa), and sedge, umbrella (small-flower umbrella sedge, Cyperus difformis) were grown to the 2-leaf stage for testing. At time of treatment, test pots were flooded to 3 cm above the soil surface, treated by application of test compounds directly to the paddy water, and then maintained at that water depth for the duration of the test. Treated plants and controls were maintained in a greenhouse for 13 days, after which time all species were compared to controls and visually evaluated. Plant response ratings, summarized in Table B, are based on a scale of 0 to 100 where 0 is no effect and 100 is complete control. A dash (-) response means no test result.

[5] = tested on: oat, wild (wild oat, Avena fatua); experiment: Test C preemergence, wild oat; details: 0 is no effect, 100 is complete control
Description: as §1, §2

[6] = tested on: ragweed (common ragweed, Ambrosia artemisiifolia); experiment: Test C postemergence, ragweed; details: visual injury, 0 to 100 scale (0 no effect, 100 complete control)
Description: as §1, §2

kochia (Bassia scoparia) [7] = experiment: Test C postemergence, kochia; details: visual injury, 0 to 100 scale (0 no effect, 100 complete control)
Description: as §1, §2

[8] = tested on: goosegrass (Eleusine indica); experiment: Test C preemergence, goosegrass; details: 0 is no effect, 100 is complete control
Description: as §1, §2

rice (Oryza sativa) = experiment: Test D flooded paddy test, rice; set-up: key: 0 = no effect, 100 = complete control; details: 250 g ai/ha, Flood; applied to paddy water at 2-leaf stage; visual rating after 13 days; scale 0 (no effect) to 100 (complete control)
Experimental: as §3

kochia (Bassia scoparia) [9] = experiment: Test C preemergence, kochia; details: 0 is no effect, 100 is complete control
Description: as §1, §2

soybean (Glycine max) [10] = experiment: Test C postemergence, soybean; details: visual injury, 0 to 100 scale (0 no effect, 100 complete control)
Description: as §1, §2

corn (Zea mays) [11] = experiment: Test C preemergence, corn; details: 0 is no effect, 100 is complete control
Description: as §1, §2

[12] = tested on: foxtail, giant (giant foxtail, Setaria faberi); experiment: Test C postemergence, giant foxtail; details: visual injury, 0 to 100 scale (0 no effect, 100 complete control)
Description: as §1, §2

[13] = tested on: ragweed (common ragweed, Ambrosia artemisiifolia); experiment: Test C preemergence, ragweed; details: 125 g ai/ha Preemergence; 0 is no effect, 100 is complete control
Description: as §1, §2

corn (Zea mays) [14] = experiment: Test C postemergence, corn; details: visual injury, 0 to 100 scale (0 no effect, 100 complete control)
Description: as §1, §2

[15] = tested on: goosegrass (Eleusine indica); experiment: Test C postemergence, goosegrass; details: visual injury, 0 to 100 scale (0 no effect, 100 complete control)
Description: as §1, §2

[16] = tested on: wheat (Triticum aestivum); experiment: Test C postemergence, wheat; details: visual injury, 0 to 100 scale (0 no effect, 100 complete control)
Description: as §1, §2

[17] = tested on: pigweed, palmer (palmer amaranth, Amaranthus palmeri); experiment: Test C postemergence, palmer amaranth; details: visual injury, 0 to 100 scale (0 no effect, 100 complete control)
Description: as §1, §2

[18] = tested on: ducksalad (Heteranthera limosa); experiment: Test D flooded paddy test, ducksalad; set-up: key: 0 = no effect, 100 = complete control; details: 250 g ai/ha, Flood; applied to paddy water at 2-leaf stage; visual rating after 13 days; scale 0 (no effect) to 100 (complete control)
Experimental: as §3

[19] = tested on: sedge, umbrella (small-flower umbrella sedge, Cyperus difformis); experiment: Test D flooded paddy test, umbrella sedge; set-up: key: 0 = no effect, 100 = complete control; details: 250 g ai/ha, Flood; applied to paddy water at 2-leaf stage; visual rating after 13 days; scale 0 (no effect) to 100 (complete control)
Experimental: as §3

[20] = tested on: blackgrass (Alopecurus myosuroides); experiment: Test C postemergence, blackgrass; details: visual injury, 0 to 100 scale (0 no effect, 100 complete control)
Description: as §1, §2

soybean (Glycine max) [21] = experiment: Test C preemergence, soybean; details: 0 is no effect, 100 is complete control
Description: as §1, §2

[22] = tested on: ryegrass, Italian (Italian ryegrass, Lolium multiflorum); experiment: Test C preemergence, Italian ryegrass; details: 0 is no effect, 100 is complete control
Description: as §1, §2

[23] = tested on: ryegrass, Italian (Italian ryegrass, Lolium multiflorum); experiment: Test C postemergence, Italian ryegrass; details: visual injury, 0 to 100 scale (0 no effect, 100 complete control)
Description: as §1, §2

[24] = tested on: horseweed (Erigeron canadensis); experiment: Test C postemergence, horseweed; details: visual injury, 0 to 100 scale (0 no effect, 100 complete control)
Description: as §1, §2

[25] = tested on: foxtail, giant (giant foxtail, Setaria faberi); experiment: Test C preemergence, giant foxtail; details: 0 is no effect, 100 is complete control
Description: as §1, §2

## Cc1cc(C)c(N(COC(=O)C(C)(C)C)S(=O)(=O)C(F)(F)F)cc1N1CCC(OCC2CC(F)(F)C2)C1=O (centres unmarked) [Compound 55]
[1]; 31 g ai/ha Postemergence
  Oat, Wild plant response rating: 20
[1]; 125 g ai/ha Postemergence
  Oat, Wild plant response rating: 30
[2]; 31 g ai/ha Preemergence
  Plant response rating (0 to 100 scale), Wheat: 10
[2]; 125 g ai/ha Preemergence
  Plant response rating (0 to 100 scale), Wheat: 40
[3]; 31 g ai/ha Preemergence
  Plant response rating (0 to 100 scale), Pigweed, Palmer: 0
[3]; 125 g ai/ha Preemergence
  Plant response rating (0 to 100 scale), Pigweed, Palmer: 30
[4]
  Plant response rating, Barnyardgrass: 50
[5]; 31 g ai/ha Preemergence
  Plant response rating (0 to 100 scale), Oat, Wild: 0
[5]; 125 g ai/ha Preemergence
  Plant response rating (0 to 100 scale), Oat, Wild: 20
[6]; 31 g ai/ha Postemergence
  Ragweed plant response rating: 50
[6]; 125 g ai/ha Postemergence
  Ragweed plant response rating: 80
Kochia (Bassia scoparia) [7]; 31 g ai/ha Postemergence
  Kochia plant response rating: 0
Kochia (Bassia scoparia) [7]; 125 g ai/ha Postemergence
  Kochia plant response rating: 20
[8]; 31 g ai/ha Preemergence
  Plant response rating (0 to 100 scale), Goosegrass: 10
[8]; 125 g ai/ha Preemergence
  Plant response rating (0 to 100 scale), Goosegrass: 100
Rice (Oryza sativa)
  Plant response rating, Rice: 15
Kochia (Bassia scoparia) [9]; 31 g ai/ha Preemergence
  Plant response rating (0 to 100 scale), Kochia: 0
Kochia (Bassia scoparia) [9]; 125 g ai/ha Preemergence
  Plant response rating (0 to 100 scale), Kochia: 10
Soybean (Glycine max) [10]; 31 g ai/ha Postemergence
  Soybean plant response rating: 50
Soybean (Glycine max) [10]; 125 g ai/ha Postemergence
  Soybean plant response rating: 70
Corn (Zea mays) [11]; 31 g ai/ha Preemergence
  Plant response rating (0 to 100 scale), Corn: 0
Corn (Zea mays) [11]; 125 g ai/ha Preemergence
  Plant response rating (0 to 100 scale), Corn: 10
[12]; 31 g ai/ha Postemergence
  Foxtail, Giant plant response rating: 30
[12]; 125 g ai/ha Postemergence
  Foxtail, Giant plant response rating: 70
[13]
  Plant response rating (0 to 100 scale), Ragweed: 40
Corn (Zea mays) [14]; 31 g ai/ha Postemergence
  Corn plant response rating: 0
Corn (Zea mays) [14]; 125 g ai/ha Postemergence
  Corn plant response rating: 70
[15]; 31 g ai/ha Postemergence
  Goosegrass plant response rating: 40
[15]; 125 g ai/ha Postemergence
  Goosegrass plant response rating: 90
[16]; 31 g ai/ha Postemergence
  Wheat plant response rating: 20
[16]; 125 g ai/ha Postemergence
  Wheat plant response rating: 70
[17]; 31 g ai/ha Postemergence
  Pigweed, Palmer plant response rating: 0
[17]; 125 g ai/ha Postemergence
  Pigweed, Palmer plant response rating: 40
[18]
  Plant response rating, Ducksalad: 90
[19]
  Plant response rating, Sedge, Umbrella: 95
[20]; 31 g ai/ha Postemergence
  Blackgrass plant response rating: 0
[20]; 125 g ai/ha Postemergence
  Blackgrass plant response rating: 40
Soybean (Glycine max) [21]; 31 g ai/ha Preemergence
  Plant response rating (0 to 100 scale), Soybean: 0
Soybean (Glycine max) [21]; 125 g ai/ha Preemergence
  Plant response rating (0 to 100 scale), Soybean: 0
[22]; 31 g ai/ha Preemergence
  Plant response rating (0 to 100 scale), Ryegrass, Italian: 20
[22]; 125 g ai/ha Preemergence
  Plant response rating (0 to 100 scale), Ryegrass, Italian: 60
[23]; 31 g ai/ha Postemergence
  Ryegrass, Italian plant response rating: 0
[23]; 125 g ai/ha Postemergence
  Ryegrass, Italian plant response rating: 60
[24]; 31 g ai/ha Postemergence
  Horseweed plant response rating: 80
[24]; 125 g ai/ha Postemergence
  Horseweed plant response rating: 80
[25]; 31 g ai/ha Preemergence
  Plant response rating (0 to 100 scale), Foxtail, Giant: 0
[25]; 125 g ai/ha Preemergence
  Plant response rating (0 to 100 scale), Foxtail, Giant: 10
